The source of these data is patent publication US9708334B2, “Substituted 2,4,5,6-tetrahydropyrrolo[3,4-c]pyrazole and 4,5,6,7-tetrahydro-2H-pyrazolo[4,3-c]pyridine compounds as GlyT1 inhibitors” (DART NEUROSCIENCE (CAYMAN) LTD., priority 2014, dated 2017).

Bounds are passed on as bounds.

The assay addresses T1, GlyT1 (Homo sapiens, UniProt P48067).
T1 construct: expressed in transfected cells
T1 sequence (P48067 1-706): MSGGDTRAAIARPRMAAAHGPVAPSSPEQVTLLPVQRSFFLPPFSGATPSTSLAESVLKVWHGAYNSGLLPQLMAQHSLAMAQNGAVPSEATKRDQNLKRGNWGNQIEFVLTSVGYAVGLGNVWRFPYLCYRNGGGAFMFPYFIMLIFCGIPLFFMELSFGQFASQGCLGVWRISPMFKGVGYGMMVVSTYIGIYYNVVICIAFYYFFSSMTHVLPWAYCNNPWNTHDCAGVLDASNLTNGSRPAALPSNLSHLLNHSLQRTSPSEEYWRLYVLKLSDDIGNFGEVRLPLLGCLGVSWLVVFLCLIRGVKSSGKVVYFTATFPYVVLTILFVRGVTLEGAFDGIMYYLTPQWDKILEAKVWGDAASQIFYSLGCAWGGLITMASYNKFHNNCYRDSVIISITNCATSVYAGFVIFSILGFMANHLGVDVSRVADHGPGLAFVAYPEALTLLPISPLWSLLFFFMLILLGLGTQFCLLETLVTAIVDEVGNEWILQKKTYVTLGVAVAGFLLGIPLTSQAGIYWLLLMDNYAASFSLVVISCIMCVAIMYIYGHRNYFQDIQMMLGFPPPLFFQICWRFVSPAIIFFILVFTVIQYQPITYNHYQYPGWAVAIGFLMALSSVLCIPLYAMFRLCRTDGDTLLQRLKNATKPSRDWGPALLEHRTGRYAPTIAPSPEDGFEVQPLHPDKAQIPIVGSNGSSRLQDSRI
Briefly: Glycine Transporter 1 (GlyT1) uptake assay, scintillation proximity assay of [14C]-glycine uptake. Format: cell-based. Particulars: SPA, four parameter logistic fit, read-out: GlyT1 (pIC50) (converted). As for the experimental part: Glycine Transporter 1 (GlyT1) Uptake Assay
Plates were then read on a MicroBeta plate counter (Perkin Elmer). Dose-response data for tested compounds were analyzed and curves were fit using a four parameter logistic fit to determine IC50 values. […]
For the compound `CC(C)Oc1cc(-n2cc3c(n2)CN(C(=O)c2cc(C#N)ccc2OC(C)C(F)(F)F)C3)ccn1` (stereo in doubt) [Example 372, 3-{2-[2-(Propan-2-yloxy)pyridin-4-yl]-2H 4H 5H 6H-pyrrolo[3,4-c]pyrazole-5-carbonyl}-4-{[(2S)-1 1 1-trifluoropropan-2-yl]oxy}benzonitrile], the IC50 was 100 to 1000 nM.

On to `CCC(C)Cn1cc2c(n1)CN(C(=O)c1cc(S(C)(=O)=O)ccc1N1CCC(F)(F)CC1)C2` (stereo in doubt) [Example 429, 4 4-Difluoro-1-(4-methanesulfonyl-2-{2-[(2S)-2-methylbutyl]-2H 4H 5H 6H-pyrrolo[3,4-c]pyrazole-5-carbonyl}phenyl)piperidine], for which the IC50 was less than 100 nM.

With `CC(C)Oc1ccc(S(C)(=O)=O)cc1C(=O)N1Cc2cn(-c3ccc(F)cc3)nc2C1` [Example 1, (2-(4-Fluorophenyl)pyrrolo[3,4-c]pyrazol-5(2H,4H,6H)-yl)(2-isopropoxy-5-(methylsulfonyl)phenyl)methanone], the IC50 is less than 100 nM.

Regarding `CC(C)Oc1ccc(S(C)(=O)=O)cc1C(=O)N1Cc2cn(-c3ccc(F)c(F)c3)nc2C1` [Example 2, (2-(3,4-Difluorophenyl)pyrrolo[3,4-c]pyrazol-5(2H,4H,6H)-yl)(2-isopropoxy-5-(methylsulfonyl)phenyl)methanone], the IC50 is less than 100 nM.

`Cc1cc(-n2cc3c(n2)CN(C(=O)c2cc(C#N)ccc2OCC(C)(C)C)C3)ccn1` [Example 3, 3-(2-(2-Methylpyridin-4-yl)-2,4,5,6-tetrahydropyrrolo[3,4-c]pyrazole-5-carbonyl)-4-(neopentyloxy)benzonitrile]: the IC50 is less than 100 nM.

For `COc1c(C#N)ccc(OC(C)C(F)(F)F)c1C(=O)N1CCc2nn(-c3ccc(F)cc3)cc2C1` (stereo not drawn) [Example 4, 3-(2-(4-Fluorophenyl)-4,5,6,7-tetrahydro-2H-pyrazolo[4,3-c]pyridine-5-carbonyl)-2-methoxy-4-((1,1,1-trifluoropropan-2-yl)oxy)benzonitrile], the IC50 is 100 to 1000 nM.

In the case of `CC(Oc1ccc(C(=O)O)c(Cl)c1C(=O)N1Cc2cn(-c3ccc(F)cc3)nc2C1)C(F)(F)F` (stereo not drawn) [Example 5, 2-Chloro-3-(2-(4-fluorophenyl)-2,4,5,6-tetrahydropyrrolo[3,4-c]pyrazole-5-carbonyl)-4-((1,1,1-trifluoropropan-2-yl)oxy)benzoic acid], the IC50 was greater than 10000 nM.

Consider `CC(Oc1ccc(C(=O)N2CCC2)c(Cl)c1C(=O)N1CCc2nn(-c3ccc(F)cc3)cc2C1)C(F)(F)F` (stereo not drawn) [Example 6, 1-{2-Chloro-3-[2-(4-fluorophenyl)-2H 4H 5H 6H 7H-pyrazolo[4,3-c]pyridine-5-carbonyl]-4-[(1 1 1-trifluoropropan-2-yl)oxy]benzoyl}azetidine], for which the IC50 is greater than 10000 nM.

With `CC(Oc1ccc(C(N)=O)cc1C(=O)N1CCc2nn(-c3ccc(F)cc3)cc2C1)C(F)(F)F` (stereo not drawn) [Example 7, 3-(2-(4-Fluorophenyl)-4,5,6,7-tetrahydro-2H-pyrazolo[4,3-c]pyridine-5-carbonyl)-4-((1,1,1-trifluoropropan-2-yl)oxy)benzamide], the IC50 is 1000 to 10000 nM.

For the compound `Cc1cc(-n2cc3c(n2)CN(C(=O)c2cc(C#N)ccc2-c2cccc(F)c2)C3)ccn1` [Example 8, 4-(3-Fluorophenyl)-3-[2-(2-methylpyridin-4-yl)-2H 4H 5H 6H-pyrrolo[3,4-c]pyrazole-5-carbonyl]benzonitrile], the IC50 is less than 100 nM.

As for `CC(Oc1ccc(C#N)cc1C(=O)N1Cc2cn(-c3ccc(F)cc3)nc2C1)C(F)F` (stereo not drawn) [Example 9, 4-((1,1-Difluoropropan-2-yl)oxy)-3-(2-(4-fluorophenyl)-2,4,5,6-tetrahydropyrrolo[3,4-c]pyrazole-5-carbonyl)benzonitrile], the IC50 is less than 100 nM.

On to `COc1c(C#N)ccc(CCC(C)(C)C)c1C(=O)N1Cc2cn(-c3ccc(F)cc3)nc2C1` [Example 10, 4-(3,3-Dimethylbutyl)-3-(2-(4-fluorophenyl)-2,4,5,6-tetrahydropyrrolo[3,4-c]pyrazole-5-carbonyl)-2-methoxybenzonitrile], for which the IC50 is 100 to 1000 nM.

Consider `COc1c(C#N)ccc(OC(C)C(F)F)c1C(=O)N1Cc2cn(-c3ccc(F)cc3)nc2C1` (stereo not drawn) [Example 11, 4-[(1 1-Difluoropropan-2-yl)oxy]-3-[2-(4-fluorophenyl)-2H 4H 5H 6H-pyrrolo[3,4-c]pyrazole-5-carbonyl]-2-methoxybenzonitrile], for which the IC50 was less than 100 nM.

Regarding `COc1c(C#N)ccc(C2(F)CCC(F)(F)CC2)c1C(=O)N1CCc2nn(-c3ccc(F)cn3)cc2C1` [Example 12, 3-[2-(5-Fluoropyridin-2-yl)-2H 4H 5H 6H 7H-pyrazolo[4,3-c]pyridine-5-carbonyl]-2-methoxy-4-(1 4 4-trifluorocyclohexyl)benzonitrile], the IC50 is 100 to 1000 nM.

For `COc1c(C#N)ccc(C2(F)CCC(F)(F)CC2)c1C(=O)N1CCc2nn(-c3cccnc3)cc2C1` [Example 13, 2-Methoxy-3-[2-(pyridin-3-yl)-2H 4H 5H 6H 7H-pyrazolo[4,3-c]pyridine-5-carbonyl]-4-(1 4 4-trifluorocyclohexyl)benzonitrile], the IC50 was 1000 to 10000 nM.

`COc1c(C#N)ccc(C2(F)CCOCC2)c1C(=O)N1CCc2nn(-c3ccc(F)cn3)cc2C1` [Example 14, 4-(4-Fluorooxan-4-yl)-3-[2-(5-fluoropyridin-2-yl)-2H 4H 5H 6H 7H-pyrazolo[4,3-c]pyridine-5-carbonyl]-2-methoxybenzonitrile]: the IC50 was 100 to 1000 nM.

Regarding `COc1c(C#N)ccc(C2(F)CCC(F)(F)CC2)c1C(=O)N1Cc2cn(-c3ccc(F)cn3)nc2C1` [Example 15, 3-[2-(5-Fluoropyridin-2-yl)-2H 4H 5H 6H-pyrrolo[3,4-c]pyrazole-5-carbonyl]-2-methoxy-4-(1 4 4-trifluorocyclohexyl)benzonitrile], the IC50 is 100 to 1000 nM.

For `COc1cc(-n2cc3c(n2)CN(C(=O)c2c(O[C@@H](C)C(F)(F)F)ccc(C#N)c2Cl)C3)ccn1` [Example 16, 2-Chloro-3-[2-(2-methoxypyridin-4-yl)-2H 4H 5H 6H-pyrrolo[3,4-c]pyrazole-5-carbonyl]-4-{[(2S)-1 1 1-trifluoropropan-2-yl]oxy}benzonitrile], the IC50 was less than 100 nM.

As to `Cc1cc(-n2cc3c(n2)CN(C(=O)c2c(O[C@@H](C)C(F)(F)F)ccc(C#N)c2Cl)C3)ccn1` [Example 17, 2-Chloro-3-[2-(2-methylpyridin-4-yl)-2H 4H 5H 6H-pyrrolo[3,4-c]pyrazole-5-carbonyl]-4-{[(2S)-1 1 1-trifluoropropan-2-yl]oxy}benzonitrile], the IC50 is less than 100 nM.

On to `COc1c(C#N)ccc(O[C@@H](C)C(F)(F)F)c1C(=O)N1Cc2cn(-c3ccnc(C)c3)nc2C1` [Example 18, 2-Methoxy-3-[2-(2-methylpyridin-4-yl)-2H 4H 5H 6H-pyrrolo[3,4-c]pyrazole-5-carbonyl]-4-{[(2S)-1 1 1-trifluoropropan-2-yl]oxy}benzonitrile], for which the IC50 was less than 100 nM.

`Cc1cccc(-n2cc3c(n2)CN(C(=O)c2c(O[C@@H](C)C(F)(F)F)ccc(C#N)c2Cl)C3)n1` [Example 19, 2-Chloro-3-[2-(6-methylpyridin-2-yl)-2H 4H 5H 6H-pyrrolo[3,4-c]pyrazole-5-carbonyl]-4-{[(2S)-1 1 1-trifluoropropan-2-yl]oxy}benzonitrile]: the IC50 was less than 100 nM.
